Experimental findings from ChEMBL document CHEMBL1153221, “The identification of structurally novel, selective, orally bioavailable positive modulators of mGluR2” (Bioorg Med Chem Lett, 2010) are described below.

The target of one assay is T1, Metabotropic glutamate receptor 2 (Homo sapiens, UniProt Q14416). In words: Agonist activity at human mGluR2 expressed in CHO cells co-expressing Ga16 G-protein assessed as glutamate-induced response by FLIPR assay. Format: functional, cell-based.
Target sequence in this assay (Q14416 whole entry): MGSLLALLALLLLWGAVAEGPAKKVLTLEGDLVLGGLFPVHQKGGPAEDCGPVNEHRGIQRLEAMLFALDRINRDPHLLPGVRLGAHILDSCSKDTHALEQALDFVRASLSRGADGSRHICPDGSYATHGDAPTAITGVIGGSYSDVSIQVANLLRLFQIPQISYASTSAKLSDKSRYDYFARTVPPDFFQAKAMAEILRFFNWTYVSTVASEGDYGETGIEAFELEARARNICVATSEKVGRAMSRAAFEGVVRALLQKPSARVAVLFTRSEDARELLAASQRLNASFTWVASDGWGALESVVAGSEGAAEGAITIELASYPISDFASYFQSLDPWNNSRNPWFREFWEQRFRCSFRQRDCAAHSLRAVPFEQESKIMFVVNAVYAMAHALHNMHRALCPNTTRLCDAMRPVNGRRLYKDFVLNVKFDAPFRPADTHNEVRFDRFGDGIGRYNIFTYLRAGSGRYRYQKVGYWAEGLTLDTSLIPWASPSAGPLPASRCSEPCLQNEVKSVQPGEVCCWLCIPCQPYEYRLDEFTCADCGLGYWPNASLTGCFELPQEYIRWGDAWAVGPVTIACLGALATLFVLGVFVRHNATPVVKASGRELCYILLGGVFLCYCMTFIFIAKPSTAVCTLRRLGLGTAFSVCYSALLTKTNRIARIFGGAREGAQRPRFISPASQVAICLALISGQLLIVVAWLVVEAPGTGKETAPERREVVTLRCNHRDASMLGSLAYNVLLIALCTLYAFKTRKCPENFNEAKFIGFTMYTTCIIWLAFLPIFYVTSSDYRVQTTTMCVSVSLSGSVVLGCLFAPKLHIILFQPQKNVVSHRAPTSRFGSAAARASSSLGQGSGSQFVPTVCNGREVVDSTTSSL
One may read the EC50 as the concentration needed to bring the measured effect to its halfway point. For the compound `Cn1c(CN2CCC(c3ncc(C(F)(F)F)cc3Cl)CC2)nc2ccccc21`, the EC50 is 631 nM.
The same measure, in the same setting: the figure for `Cn1c(CN2CCC(c3ccccc3)CC2)nc2ccccc21` is 6310 nM; for `Cn1c(CN2CCN(c3ccccc3)CC2)nc2ccccc21` it is greater than 15800 nM; for `Cn1c(CN2CCC(c3cccc(Cl)c3)CC2)nc2ccccc21` it is 3980 nM.
As for `Cn1c(CN2CCC(c3cccc(C(F)(F)F)c3)CC2)nc2ccccc21`, the EC50 was 2510 nM.
Same read-out and setting: in the case of `Cn1c(CN2CCC(c3nsc4ccccc34)CC2)nc2ccccc21` it was 2510 nM.
Still for that read-out and setting: in the case of `Cn1c(CN2CCC(c3ccccc3C(F)(F)F)CC2)nc2ccccc21` it was 6310 nM; in that of `Cn1c(CN2CCC(c3ccc(C(F)(F)F)cc3)CC2)nc2ccccc21`, 2000 nM.
The same measure, in the same setting: in the case of `Cn1c(CN2CCC(c3ccc(Cl)cc3)CC2)nc2ccccc21` it was 5010 nM.
As to `Cn1c(CN2CCN(c3ccc(Cl)cc3F)CC2)nc2ccccc21`, the EC50 was 2510 nM.

The target of a further assay is T1, Metabotropic glutamate receptor 2. In words: Positive modulation of human mGluR2 expressed in CHO cells co-expressing Ga16 G-protein assessed as glutamate-induced response by FLIPR assay. Format: cell-based.
Target sequence in this assay (Q14416 whole entry): as above
For the compound `Cn1c(CN2CCC(c3ncc(C(F)(F)F)cc3Cl)CC2)nc2ccccc21`, the EC50 was 39.8 nM.
Same read-out and setting: the figure for `Cn1c(CN2CCC(c3ccccc3)CC2)nc2ccccc21` is 200 nM.
On to `Cn1c(CN2CCN(c3ccccc3)CC2)nc2ccccc21`, for which the EC50 was 5010 nM.
As to `Cn1c(CN2CCC(c3cccc(Cl)c3)CC2)nc2ccccc21`, the EC50 is 100 nM.
Regarding `Cn1c(CN2CCC(c3cccc(C(F)(F)F)c3)CC2)nc2ccccc21`, the EC50 was 100 nM.
Same read-out and setting: in the case of `Cn1c(CN2CCC(c3nsc4ccccc34)CC2)nc2ccccc21` it was 200 nM.
The same measure, in the same setting: in the case of `Cn1c(CN2CCC(c3ccccc3C(F)(F)F)CC2)nc2ccccc21` it was 316 nM; in that of `Cn1c(CN2CCC(c3ccc(C(F)(F)F)cc3)CC2)nc2ccccc21`, 100 nM; in that of `Cn1c(CN2CCC(c3ccc(Cl)cc3)CC2)nc2ccccc21`, 79.4 nM.
The same measure, in the same setting: the figure for `Cn1c(CN2CCN(c3ccc(Cl)cc3F)CC2)nc2ccccc21` is 126 nM.

The target is the same in a further assay. The experiment in a line: Positive modulation of human mGluR2 expressed in CHO cells co-expressing Ga16 G-protein assessed as glutamate-induced response by FLIPR assay relative to glutamate. Format: cell-based.
Target sequence in this assay (Q14416 19-872 limits assumed): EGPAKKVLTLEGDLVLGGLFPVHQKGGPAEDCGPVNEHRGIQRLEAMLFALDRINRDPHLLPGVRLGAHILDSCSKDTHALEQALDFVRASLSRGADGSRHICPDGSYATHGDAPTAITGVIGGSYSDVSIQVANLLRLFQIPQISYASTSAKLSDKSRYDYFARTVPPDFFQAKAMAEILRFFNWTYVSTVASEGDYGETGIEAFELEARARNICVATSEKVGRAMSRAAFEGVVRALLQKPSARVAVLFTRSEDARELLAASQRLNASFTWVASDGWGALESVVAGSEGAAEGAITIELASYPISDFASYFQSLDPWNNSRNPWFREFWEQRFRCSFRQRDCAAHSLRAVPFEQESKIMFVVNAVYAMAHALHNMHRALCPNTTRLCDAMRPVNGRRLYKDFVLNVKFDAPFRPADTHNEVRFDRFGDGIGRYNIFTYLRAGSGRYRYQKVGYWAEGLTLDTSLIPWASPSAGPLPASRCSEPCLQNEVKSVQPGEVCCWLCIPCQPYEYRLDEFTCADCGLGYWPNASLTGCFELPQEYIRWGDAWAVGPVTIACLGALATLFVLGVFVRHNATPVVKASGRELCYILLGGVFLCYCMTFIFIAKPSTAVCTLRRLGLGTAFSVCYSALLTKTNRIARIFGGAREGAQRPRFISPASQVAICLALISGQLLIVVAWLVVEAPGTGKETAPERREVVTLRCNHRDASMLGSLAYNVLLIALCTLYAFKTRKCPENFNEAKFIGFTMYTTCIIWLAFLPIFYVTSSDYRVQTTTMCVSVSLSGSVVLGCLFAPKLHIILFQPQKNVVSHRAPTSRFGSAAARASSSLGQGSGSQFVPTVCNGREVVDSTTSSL
One may read the Emax as the maximal effect, on the per cent scale that the assay sets. Take `Cn1c(CN2CCC(c3ncc(C(F)(F)F)cc3Cl)CC2)nc2ccccc21`: the Emax is 70%.
Take `Cn1c(CN2CCC(c3ccccc3)CC2)nc2ccccc21`: the Emax was 89%.
Turning to `Cn1c(CN2CCN(c3ccccc3)CC2)nc2ccccc21`, the maximum response (Emax) worked out at 100%.
As for `Cn1c(CN2CCC(c3cccc(Cl)c3)CC2)nc2ccccc21`, the Emax worked out at 92%.
On the same count and under the same terms, the figure for `Cn1c(CN2CCC(c3cccc(C(F)(F)F)c3)CC2)nc2ccccc21` is 94%; for `Cn1c(CN2CCC(c3nsc4ccccc34)CC2)nc2ccccc21` it is 84%; for `Cn1c(CN2CCC(c3ccccc3C(F)(F)F)CC2)nc2ccccc21` it is 94%.
For the compound `Cn1c(CN2CCC(c3ccc(C(F)(F)F)cc3)CC2)nc2ccccc21`, the Emax was 110%.
Consider `Cn1c(CN2CCC(c3ccc(Cl)cc3)CC2)nc2ccccc21`, for which the Emax is 91%.
On the same count and under the same terms, the figure for `Cn1c(CN2CCN(c3ccc(Cl)cc3F)CC2)nc2ccccc21` is 69%.

A further assay deals with D(3) dopamine receptor (Homo sapiens, UniProt P35462). In words: Antagonist activity at human D3 receptor expressed in CHO cells co-expressing G0 by [35S]GTPgammaS binding assay. Format: functional, cell-based. A general note: Binding of GTPγS marks nucleotide exchange on a G protein.
Sequence of D(3) dopamine receptor (P35462 whole entry): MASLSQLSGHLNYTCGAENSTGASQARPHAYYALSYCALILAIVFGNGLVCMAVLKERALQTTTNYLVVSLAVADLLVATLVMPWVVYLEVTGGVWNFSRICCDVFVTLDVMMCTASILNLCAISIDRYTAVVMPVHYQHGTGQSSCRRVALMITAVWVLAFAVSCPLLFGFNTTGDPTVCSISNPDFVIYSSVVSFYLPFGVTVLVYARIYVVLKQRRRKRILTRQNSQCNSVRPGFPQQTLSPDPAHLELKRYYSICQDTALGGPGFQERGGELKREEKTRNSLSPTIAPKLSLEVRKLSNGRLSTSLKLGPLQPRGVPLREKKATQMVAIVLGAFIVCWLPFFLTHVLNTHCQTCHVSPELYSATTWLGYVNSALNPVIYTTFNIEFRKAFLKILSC
Broadly, the Ki is the dissociation constant of the complex between target and ligand, obtained from inhibition or displacement. `Cn1c(CN2CCC(c3ncc(C(F)(F)F)cc3Cl)CC2)nc2ccccc21` had a Ki of 1580 nM.
In the case of `Cn1c(CN2CCC(c3ccccc3)CC2)nc2ccccc21`, the Ki was 126 nM.
Still for that read-out and setting: in the case of `Cn1c(CN2CCC(c3cccc(Cl)c3)CC2)nc2ccccc21` it was 1580 nM; in that of `Cn1c(CN2CCC(c3cccc(C(F)(F)F)c3)CC2)nc2ccccc21`, greater than 10000 nM; in that of `Cn1c(CN2CCC(c3nsc4ccccc34)CC2)nc2ccccc21`, 3980 nM.
Same read-out and setting: the figure for `Cn1c(CN2CCC(c3ccccc3C(F)(F)F)CC2)nc2ccccc21` is 501 nM; for `Cn1c(CN2CCC(c3ccc(C(F)(F)F)cc3)CC2)nc2ccccc21` it is greater than 10000 nM; for `Cn1c(CN2CCC(c3ccc(Cl)cc3)CC2)nc2ccccc21` it is 316 nM.

For the next assay, the target named is D(2) dopamine receptor (Homo sapiens, UniProt P14416). The experiment in a line: Antagonist activity at human D2 receptor expressed in CHO cells co-expressing G0 by [35S]GTPgammaS binding assay. Format: functional, cell-based.
Sequence of D(2) dopamine receptor (P14416 whole entry): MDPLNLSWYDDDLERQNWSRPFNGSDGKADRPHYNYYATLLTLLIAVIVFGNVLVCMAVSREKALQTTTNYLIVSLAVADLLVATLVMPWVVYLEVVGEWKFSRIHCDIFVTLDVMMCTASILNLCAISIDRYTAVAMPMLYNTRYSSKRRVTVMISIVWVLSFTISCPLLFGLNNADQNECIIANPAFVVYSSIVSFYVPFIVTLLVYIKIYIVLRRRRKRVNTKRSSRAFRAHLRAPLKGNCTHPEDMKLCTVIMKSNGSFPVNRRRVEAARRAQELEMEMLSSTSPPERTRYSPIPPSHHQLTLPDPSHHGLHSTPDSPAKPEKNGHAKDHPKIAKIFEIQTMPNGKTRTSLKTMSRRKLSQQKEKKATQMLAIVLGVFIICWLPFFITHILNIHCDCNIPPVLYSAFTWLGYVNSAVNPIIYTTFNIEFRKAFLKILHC
The compound `Cn1c(CN2CCC(c3ncc(C(F)(F)F)cc3Cl)CC2)nc2ccccc21` gave a Ki of 794 nM.
The same measure, in the same setting: the figure for `Cn1c(CN2CCC(c3ccccc3)CC2)nc2ccccc21` is 25.1 nM.
For `Cn1c(CN2CCC(c3cccc(Cl)c3)CC2)nc2ccccc21`, the Ki is 39.8 nM.
The same measure, in the same setting: in the case of `Cn1c(CN2CCC(c3cccc(C(F)(F)F)c3)CC2)nc2ccccc21` it was 126 nM; in that of `Cn1c(CN2CCC(c3nsc4ccccc34)CC2)nc2ccccc21`, 79.4 nM.
`Cn1c(CN2CCC(c3ccccc3C(F)(F)F)CC2)nc2ccccc21` had a Ki greater than 3160 nM.
Same read-out and setting: in the case of `Cn1c(CN2CCC(c3ccc(C(F)(F)F)cc3)CC2)nc2ccccc21` it was 251 nM; in that of `Cn1c(CN2CCC(c3ccc(Cl)cc3)CC2)nc2ccccc21`, 15.8 nM.

The target of a further assay is T2, D(4) dopamine receptor (Homo sapiens, UniProt P21917).
T2 sequence (P21917 whole entry): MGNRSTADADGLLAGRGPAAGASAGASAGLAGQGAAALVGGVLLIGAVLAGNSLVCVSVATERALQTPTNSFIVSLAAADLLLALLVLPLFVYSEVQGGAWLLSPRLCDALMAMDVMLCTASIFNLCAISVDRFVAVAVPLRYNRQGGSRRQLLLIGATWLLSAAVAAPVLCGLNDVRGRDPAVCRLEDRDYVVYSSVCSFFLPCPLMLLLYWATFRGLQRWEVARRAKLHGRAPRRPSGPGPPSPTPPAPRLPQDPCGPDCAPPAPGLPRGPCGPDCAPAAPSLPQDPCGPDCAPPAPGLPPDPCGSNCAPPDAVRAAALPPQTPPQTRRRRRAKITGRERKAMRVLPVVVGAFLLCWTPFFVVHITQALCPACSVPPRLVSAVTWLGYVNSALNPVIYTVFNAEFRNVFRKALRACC
In words: Antagonist activity at human D4 receptor expressed in HEK293 cells co-expressing Gqo5 G-protein by FLIPR assay. Format: functional, cell-based.
For `Cn1c(CN2CCC(c3ncc(C(F)(F)F)cc3Cl)CC2)nc2ccccc21`, the Ki is 2510 nM.
Still for that read-out and setting: the figure for `Cn1c(CN2CCC(c3ccccc3)CC2)nc2ccccc21` is 100 nM; for `Cn1c(CN2CCC(c3cccc(Cl)c3)CC2)nc2ccccc21` it is 251 nM; for `Cn1c(CN2CCC(c3cccc(C(F)(F)F)c3)CC2)nc2ccccc21` it is 251 nM.
`Cn1c(CN2CCC(c3nsc4ccccc34)CC2)nc2ccccc21` had a Ki of 200 nM.
For the compound `Cn1c(CN2CCC(c3ccc(C(F)(F)F)cc3)CC2)nc2ccccc21`, affinity was put at a Ki of 126 nM.
On the same count and under the same terms, the figure for `Cn1c(CN2CCC(c3ccc(Cl)cc3)CC2)nc2ccccc21` is 63.1 nM; for `Cn1c(CN2CCN(c3ccc(Cl)cc3F)CC2)nc2ccccc21` it is 251 nM.
